Values belong to the molecule of their own block, whether it stands above or below them.
Tested on: HiBiT-HSD17β13 fusion protein (N-terminal HiBiT-tagged HSD17β13 isoform D) in Huh7 HiBiT-HSD17β13 OE cells
Assay: Whole-cell Huh7-HSD17B13 HiBiT assay (degrader potency and maximal efficacy, luminescence readout)
Format: cell-based, human
Conditions: 24 hour incubation, geometric mean, * = geometric mean for all forms tested (parent and salt forms); for DC50: read-out: Huh7_HIBIT-HSD17β13_DC50 GMean DC50; for Huh7_HIBIT-HSD17β13_DC50 GMean Asymptote Maximum: max. concentration 1 μM
Description: Degrader potency and maximal efficacy of test compounds were determined using a whole-cell Huh7-HSD17B13 HiBiT assay, utilizing a luminescence readout. A HiBiT tag was fused to the N-terminus of HSD17β13, and therefore the HiBiT luminescence signal produced in the assay was proportional to the level of HiBiT-HSD17β13 fusion protein in a sample.
A Huh7 HiBiT-HSD17β13 OE cell line was generated using electroporation with an N-terminal HiBiT-tagged HSD17β13 isoform D overexpression plasmid, followed by geneticin selection to produce a stable pool. Clones were created with varying HiBiT signals to optimize HiBiT HSD17 β13 ratios. A clone with similar HSD17β13 expression levels as human primary hepatocytes was selected for the compound screen.
Greiner 384-well white opaque, flat bottom, tissue culture treated plates (Greiner #781080) were used for both HiBiT and CTG assays. The treated plates were spotted with 25 nL of a compound which had been serial diluted 1 in 3.162 in 100% DMSO for an 11-point concentration response curve, with duplicate points at each concentration. The maximum concentration of the compounds was 1 mM, which was later diluted with cell suspension for a maximum concentration of 1 μM). High percentage effect (HPE) wells and zero percentage effect (ZPE) wells located in columns 1 and 24 were spotted with 25 nL of DMSO (Sigma #D2650) using an ECHO Acoustic Liquid Handler (Labcyte Echo 550 Series). Each plate was performed in duplicate.
The Huh7 HiBiT-HSD17β13 OE cells were plated on top of a compound or a DMSO control at 3,000 viable cells/well in 25 μL growth media (DMEM (Gibco #10569), 10% FBS HI (Gibco #16140), 1× Pen/Strep (Gibco #15070), 1×MEM Non-Essential Amino Acids (Gibco #11140), and 300 μg/mL Geneticin (Gibco #10131) in columns 2-24 of the plates. Huh7 parental cells were plated using the same parameters in column 1 (HPE) in the same culture medium, excluding Geneticin selection. Cells were incubated overnight with the compounds for 24 hours (with lid) at 37° C. ([…]).
Each assay was conducted after a 24 hour incubation period. In the HiBiT assay plates, 25 μL of complete Nano-Glo HiBiT Lytic detection system (Promega #PRN3040), consisting of HiBiT Lytic Buffer with the addition of 1:100 LgBiT Protein and 1:50 Substrate, was added to each well. In CTG counter screen plates, 25 μL of Cell Titer-Glo Luminescent Reagent (Promega #G7573) was added to each well. Both plates were centrifuged for 2 minutes at 1000 rpm and incubated at room temperature, in the dark, for 10 minutes. Then Luminescence was read using an EnVision Plate Reader (Perkin Elmer PE2103).
The raw data from the Envision Plate Reader was expressed as relative luminescence units (RLUs) for each well of the assay plates. Using HPE and ZPE controls, the % effect was calculated for each sample well as follows: Percent effect=[(sample RLU−HPE RLU)\(ZPE RLU−HPE RLU)]*100. The percent effect was plotted versus the compound concentration and a 50% degradation ([…]) was determined using a four-parameter logistic dose response equation. The raw data was analyzed using ABase (IDBS).

Compound: Cn1c(=O)n(C2CCC(=O)NC2=O)c2ccc(CCCN3CCN(c4ncc(-c5ccn6cc(C78CCC(CNC(=O)c9cc(F)c(O)c(F)c9F)(CC7)CC8)nc6c5)cn4)CC3)cc21.O=C(O)C(F)(F)F (racemic) [Example 12, N-{[4-(7-{2-[4-(3-{1-[(3RS)-2,6-Dioxopiperidin-3-yl]-3-methyl-2-oxo-2,3-dihydro-1H-benzimidazol-5-yl}propyl)piperazin-1-yl]pyrimidin-5-yl}imidazo[1,2-a]pyridin-2-yl)bicyclo[2.2.2]octan-1-yl]methyl}-2,3,5-trifluoro-4-hydroxybenzamide, trifluoroacetate salt]
- DC50: 140 pM
- Huh7_HIBIT-HSD17β13_DC50 GMean Asymptote Maximum: 84%

Compound: Cn1c(=O)n(C2CCC(=O)NC2=O)c2ccc(CCCN3CCOC4(C3)CN(c3ncc(-c5ccc6cn(C7CCC(CNC(=O)c8cc(F)c(O)c(F)c8F)CC7)nc6c5)cn3)C4)cc21.O=C(O)C(F)(F)F (racemic) [Example 13, N-{[(1r,4r)-4-(6-{2-[8-(3-{1-[(3RS)-2,6-Dioxopiperidin-3-yl]-3-methyl-2-oxo-2,3-dihydro-1H-benzimidazol-5-yl}propyl)-5-oxa-2,8-diazaspiro[3.5]nonan-2-yl]pyrimidin-5-yl}-2H-indazol-2-yl)cyclohexyl]methyl}-2,3,5-trifluoro-4-hydroxybenzamide, trifluoroacetate salt]
- DC50: 140 pM
- Huh7_HIBIT-HSD17β13_DC50 GMean Asymptote Maximum: 81%

Compound: Cn1c(=O)n(C2CCC(=O)NC2=O)c2ccc(CCN3CCN(c4cncc(-c5ccc6cn(C7CCC(CNC(=O)c8cc(F)c(O)c(F)c8F)CC7)nc6c5)n4)CC3)cc21.O=C(O)C(F)(F)F (racemic) [Example 14, N-{[(1r,4r)-4-(6-{6-[4-(2-{1-[(3RS)-2,6-Dioxopiperidin-3-yl]-3-methyl-2-oxo-2,3-dihydro-1H-benzimidazol-5-yl}ethyl)piperazin-1-yl]pyrazin-2-yl}-2H-indazol-2-yl)cyclohexyl]methyl}-2,3,5-trifluoro-4-hydroxybenzamide, trifluoroacetate salt]
- DC50: 230 pM
- Huh7_HIBIT-HSD17β13_DC50 GMean Asymptote Maximum: 85%

Compound: Cn1c(=O)n(C2CCC(=O)NC2=O)c2ccc(CCCN3CCN(c4ccc(-c5noc(C67CCC(CNC(=O)c8cc(F)c(O)c(F)c8F)(CC6)CC7)n5)nn4)CC3)cc21.O=C(O)C(F)(F)F (racemic) [Example 15, N-{[4-(3-{6-[4-(3-{1-[(3RS)-2,6-Dioxopiperidin-3-yl]-3-methyl-2-oxo-2,3-dihydro-1H-benzimidazol-5-yl}propyl)piperazin-1-yl]pyridazin-3-yl}-1,2,4-oxadiazol-5-yl)bicyclo[2.2.2]octan-1-yl]methyl}-2,3,5-trifluoro-4-hydroxybenzamide, trifluoroacetate salt]
- DC50: 310 pM
- Huh7_HIBIT-HSD17β13_DC50 GMean Asymptote Maximum: 85%

Compound: Cn1c(=O)n(C2CCC(=O)NC2=O)c2ccc(CCCN3CCN(c4nccc(-c5nc(C6CCC(CNC(=O)c7cc(F)c(O)c(F)c7F)CC6)no5)n4)CC3)cc21.O=C(O)C(F)(F)F (racemic) [Example 17, N-{[(1r,4r)-4-(5-{2-[4-(3-{1-[(3RS)-2,6-Dioxopiperidin-3-yl]-3-methyl-2-oxo-2,3-dihydro-1H-benzimidazol-5-yl}propyl)piperazin-1-yl]pyrimidin-4-yl}-1,2,4-oxadiazol-3-yl)cyclohexyl]methyl}-2,3,5-trifluoro-4-hydroxybenzamide, trifluoroacetate salt]
- DC50: 470 pM
- Huh7_HIBIT-HSD17β13_DC50 GMean Asymptote Maximum: 85%

Compound: Cn1c(=O)n(C2CCC(=O)NC2=O)c2ccc(CCCN3CCN(c4nccc(-c5ncc(C67CCC(CNC(=O)c8cc(F)c(O)c(F)c8F)(CC6)CC7)o5)n4)CC3)cc21 (racemic) [Example 18, N-{[4-(2-{2-[4-(3-{1-[(3RS)-2,6-Dioxopiperidin-3-yl]-3-methyl-2-oxo-2,3-dihydro-1H-benzimidazol-5-yl}propyl)piperazin-1-yl]pyrimidin-4-yl}-1,3-oxazol-5-yl)bicyclo[2.2.2]octan-1-yl]methyl}-2,3,5-trifluoro-4-hydroxybenzamide]
- DC50: 580 pM
- Huh7_HIBIT-HSD17β13_DC50 GMean Asymptote Maximum: 82%

Compound: Cn1c(=O)n(C2CCC(=O)NC2=O)c2ccc(CCCN3C[C@H]4CCN(c5ccc6cn(C7CCC(CNC(=O)c8cc(F)c(O)c(F)c8F)CC7)nc6c5)C[C@H]4C3)cc21.O=CO (mixture of isomers) [Example 22, N-{[(1r,4r)-4-{6-[(3aR,7aS)-2-(3-{1-[(3RS)-2,6-Dioxopiperidin-3-yl]-3-methyl-2-oxo-2,3-dihydro-1H-benzimidazol-5-yl}propyl)octahydro-5H-pyrrolo[3,4-c]pyridin-5-yl]-2H-indazol-2-yl}cyclohexyl]methyl}-2,3,5-trifluoro-4-hydroxybenzamide, formate salt]
- DC50: 1600 pM
- Huh7_HIBIT-HSD17β13_DC50 GMean Asymptote Maximum: 77%

Further lines, with some results ahead:

- DC50: 210 pM
Compound: Cl.Cn1c(=O)n(C2CCC(=O)NC2=O)c2ccc(CCN3CCN(c4cnc(-c5ccc6cn(C7CCC(CNC(=O)c8cc(F)c(O)c(F)c8F)CC7)nc6c5)cn4)CC3)cc21 (racemic) [Example 8, N-{[(1r,4r)-4-(6-{5-[4-(2-{1-[(3RS)-2,6-Dioxopiperidin-3-yl]-3-methyl-2-oxo-2,3-dihydro-1H-benzimidazol-5-yl}ethyl)piperazin-1-yl]pyrazin-2-yl}-2H-indazol-2-yl)cyclohexyl]methyl}-2,3,5-trifluoro-4-hydroxybenzamide, hydrochloride salt]
- Huh7_HIBIT-HSD17β13_DC50 GMean Asymptote Maximum: 87* %

- DC50: 260 pM
Compound: Cl.Cn1c(=O)n(C2CCC(=O)NC2=O)c2ccc(CCN3CCN(c4ccc5cn(C6CCC(CNC(=O)c7cc(F)c(O)c(F)c7F)CC6)nc5c4)CC3)cc21 (racemic) [Example 9, N-{[(1r,4r)-4-{6-[4-(2-{1-[(3RS)-2,6-Dioxopiperidin-3-yl]-3-methyl-2-oxo-2,3-dihydro-1H-benzimidazol-5-yl}ethyl)piperazin-1-yl]-2H-indazol-2-yl}cyclohexyl]methyl}-2,3,5-trifluoro-4-hydroxybenzamide, hydrochloride salt]
- Huh7_HIBIT-HSD17β13_DC50 GMean Asymptote Maximum: 83* %

- DC50: 420 pM
Compound: Cn1c(=O)n(C2CCC(=O)NC2=O)c2ccc(CCCN3CCN(c4ccc5nn(C6CCC(CNC(=O)c7cc(F)c(O)c(F)c7F)CC6)cc5n4)CC3)cc21.O=CO (racemic) [Example 16, N-{[(1r,4r)-4-{5-[4-(3-{1-[(3RS)-2,6-Dioxopiperidin-3-yl]-3-methyl-2-oxo-2,3-dihydro-1H-benzimidazol-5-yl}propyl)piperazin-1-yl]-2H-pyrazolo[4,3-b]pyridin-2-yl}cyclohexyl]methyl}-2,3,5-trifluoro-4-hydroxybenzamide, formate salt]
- Huh7_HIBIT-HSD17β13_DC50 GMean Asymptote Maximum: 82%

- DC50: 380 pM
Compound: Cn1c(=O)n(C2CCC(=O)NC2=O)c2ccc(CCCN3CCc4nc(-c5ccc6cn([C@H]7CC[C@H](CNC(=O)c8cc(F)c(O)c(F)c8F)CC7)nc6c5)ccc4C3)cc21 (mixture of isomers) [Example 21, N-{[(1r,4r)-4-{6-[6-(3-{1-[(3RS)-2,6-Dioxopiperidin-3-yl]-3-methyl-2-oxo-2,3-dihydro-1H-benzimidazol-5-yl}propyl)-5,6,7,8-tetrahydro-1,6-naphthyridin-2-yl]-2H-indazol-2-yl}cyclohexyl]methyl}-2,3,5-trifluoro-4-hydroxybenzamide]
- Huh7_HIBIT-HSD17β13_DC50 GMean Asymptote Maximum: 74%

- DC50: 180 pM
Compound: Cl.Cn1c(=O)n(C2CCC(=O)NC2=O)c2ccc(CCCN3CCN(c4ncc(-c5ccc6cn([C@H]7CC[C@H](CNC(=O)c8cc(F)c(O)c(F)c8F)CC7)nc6c5)cn4)CC3)cc21 (mixture of isomers) [Example 24, N-{[(1r,4r)-4-(6-{2-[4-(3-{1-[(3RS)-2,6-dioxopiperidin-3-yl]-3-methyl-2-oxo-2,3-dihydro-1H-benzimidazol-5-yl}propyl)piperazin-1-yl]pyrimidin-5-yl}-2H-indazol-2-yl)cyclohexyl]methyl}-2,3,5-trifluoro-4-hydroxybenzamide, hydrochloride salt]
- Huh7_HIBIT-HSD17β13_DC50 GMean Asymptote Maximum: 88* %

— patent US20240238425A1, “HSD17B13 Inhibitors and/or Degraders” (Pfizer Inc., priority 2022, published 2024)
